# Laboratory results: patent publication EP1953147A1, “HETEROCYCLIC COMPOUND AND MEDICINAL APPLICATION THEREOF” (priority 2005, dated 2007)
# Tested on: ΔG/SEAP/HCV E1E2
# Assay: Effect of test substance on cell infection with HCV pseudotype virus (SEAP reporter assay in HepG2 cells)
# Type: cell-based
# Details: Hepatitis C virus
row,SMILES,IC50
1,"COc1cc(OC)cc(-c2nn(-c3cc(NC(C)=O)ccc3C(F)(F)F)c(=O)c3c2CCC3)c1 [Example 159, N-{3-[4-(3,5-dimethoxy-phenyl)-1-oxo-1,5,6,7-tetrahydro-cyclopenta[d]pyridazin-2-yl]-4-trifluoromethyl-phenyl}-acetamide]",< 100 nM
2,"O=c1c2c(c(-c3cccc(C(F)(F)F)c3)nn1-c1cc(N3CC[C@H](O)C3)ccc1C(F)(F)F)CCC2 [Example 74, 2-[5-((S)-3-hydroxy-pyrrolidin-1-yl)-2-trifluoromethyl-phenyl]-4-(3-trifluoromethyl-phenyl)-2,5,6,7-tetrahydro-cyclopenta[d]pyridazin-1-one]",< 100 nM
3,"CNC(=O)CN1CCc2c(-c3cc(OC)cc(OC)c3)nn(-c3cc(N4CC[C@H](O)C4)ccc3C(F)(F)F)c(=O)c21 [Example 31, 2-{4-(3,5-dimethoxy-phenyl)-6-[5-((S)-3-hydroxy-pyrrolidin-1-yl)-2-trifluoromethyl-phenyl]-7-oxo-2,3,6,7-tetrahydro-pyrrolo[2,3-d]pyridazin-1-yl}-N-methyl-acetamide]",< 100 nM
4,"COc1cc(OC)cc(-c2nn(-c3cc(NCC(=O)OC(C)(C)C)ccc3C(F)(F)F)c(=O)c3c2CCC3)c1 [Example 94, {3-[4-(3,5-dimethoxy-phenyl)-1-oxo-1,5,6,7-tetrahydro-cyclopenta[d]pyridazin-2-yl]-4-trifluoromethyl-phenylamino}-acetic acid tert-butyl ester]",100 to 10000 nM
5,"COc1cc(OC)cc(-c2nn(-c3ccccc3C(F)(F)F)c(=O)c3c2CCN3)c1 [Example 32, 4-(3,5-dimethoxy-phenyl)-6-(2-trifluoromethylphenyl)-1,2,3,6-tetrahydro-pyrrolo[2,3-d]pyridazin-7-one]",100 to 10000 nM
6,"COc1cc(OC)cc(-c2nn(-c3cc(N4CC[C@H](O)C4)ccc3C(F)(F)F)c(=O)c3c2CCN3CC(=O)NCCNC(C)=O)c1 [Example 39, N-(2-acetylamino-ethyl)-2-{4-(3,5-dimethoxy-phenyl)-6-[5-((S)-3-hydroxy-pyrrolidin-1-yl)-2-trifluoromethyl-phenyl]-7-oxo-2,3,6,7-tetrahydro-pyrrolo[2,3-d]pyridazin-1-yl}-acetamide]",< 100 nM
7,"Cc1cc(-c2nn(-c3cc(N4CC(CO)C4)ccc3C(F)(F)F)c(=O)c3c2CCN3CCO)ccc1F [Example 1-23, 4-(4-fluoro-3-methyl-phenyl)-1-(2-hydroxy-ethyl)-6-[5-(3-hydroxymethyl-azetidin-1-yl)-2-trifluoromethylphenyl]-1,2,3,6-tetrahydro-pyrrolo[2,3-d]pyridazin-7-one]",< 100 nM
8,"Cc1cc(-c2cnco2)cc(-c2nn(-c3cc(N4CC[C@H](O)C4)ccc3C(F)(F)F)c(=O)c3c2CCC3)c1 [Example 2, 2-[5-((S)-3-hydroxy-pyrrolidin-1-yl)-2-trifluoromethyl-phenyl]-4-(3-methyl-5-oxazol-5-yl-phenyl)-2,5,6,7-tetrahydro-cyclopenta[d]pyridazin-1-one]",< 100 nM
9,"COc1cc(OC)cc(-c2nn(-c3cc(N4CC[C@H](O)C4)ccc3C(F)(F)F)c(=O)c3c2CCN3CC(=O)NCCCCNC(C)=O)c1 [Example 44, N-(4-acetylamino-butyl)-2-{4-(3,5-dimethoxy-phenyl)-6-[5-((S)-3-hydroxy-pyrrolidin-1-yl)-2-trifluoromethyl-phenyl]-7-oxo-2,3,6,7-tetrahydro-pyrrolo[2,3-d]pyridazin-1-yl}-acetamide]",< 100 nM
10,"COc1cc(O)cc(-c2nn(-c3cc(N4CC(CO)C4)ccc3C(F)(F)F)c(=O)c3c2CCN3CCO)c1 [Example 1-44, 1-(2-hydroxy-ethyl)-4-(3-hydroxy-5-methoxyphenyl)-6-[5-(3-hydroxymethyl-azetidin-1-yl)-2-trifluoromethyl-phenyl]-1,2,3,6-tetrahydro-pyrrolo[2,3-d]pyridazin-7-one]",< 100 nM
11,"COc1cc(OC)cc(-c2nn(-c3cc(NCC(=O)O)ccc3C(F)(F)F)c(=O)c3c2CCC3)c1 [Example 97, {3-[4-(3,5-dimethoxy-phenyl)-1-oxo-1,5,6,7-tetrahydro-cyclopenta[d]pyridazin-2-yl]-4-trifluoromethyl-phenylamino}-acetic acid]",< 100 nM
12,"O=c1c2c(c(-c3ccc(F)cc3)nn1-c1cc(N3CC[C@H](O)C3)ccc1C(F)(F)F)CCC2 [Example 76, 4-(4-fluoro-phenyl)-2-[5-((S)-3-hydroxy-pyrrolidin-1-yl)-2-trifluoromethyl-phenyl]-2,5,6,7-tetrahydro-cyclopenta[d]pyridazin-1-one]",< 100 nM
13,"Cc1cc(-c2cnco2)cc(-c2nn(-c3cc(N4CC[C@H](O)C4)ccc3C(F)(F)F)c(=O)c3c2CCCN3)c1 [Example 1-38, 7-[5-((S)-3-hydroxy-pyrrolidin-1-yl)-2-trifluoromethylphenyl]-5-[3-methyl-5-(oxazol-5-yl)-phenyl]-1,3,4,7-tetrahydro-2H-pyrido[2,3-d]pyridazin-8-one]",< 100 nM
14,"CCCC(=O)Nc1ccc(C(F)(F)F)c(-n2nc(-c3cc(OC)cc(OC)c3)c3c(c2=O)CCC3)c1 [Example 84, N-{3-[4-(3,5-dimethoxy-phenyl)-1-oxo-1,5,6,7-tetrahydro-cyclopenta[d]pyridazin-2-yl]-4-trifluoromethyl-phenyl}-butyramide]",< 100 nM
15,"COc1cc(OC)cc(-c2nn(-c3cc(N4CC(CO)C4)ccc3C(F)(F)F)c(=O)c3c2CCN3)c1 [Example 1-42, 4-(3,5-dimethoxy-phenyl)-6-[5-(3-hydroxymethyl-azetidin-1-yl)-2-trifluoromethyl-phenyl]-1,2,3,6-tetrahydro-pyrrolo[2,3-d]pyridazin-7-one]",< 100 nM
16,"COc1cc(OC)cc(-c2nn(-c3cc(C(=O)O)ccc3C(F)(F)F)c(=O)c3c2CCC3)c1 [Example 1-10, 3-[4-(3,5-dimethoxy-phenyl)-1-oxo-1,5,6,7-tetrahydro-cyclopenta[d]pyridazin-2-yl]-4-trifluoromethyl-benzoic acid]",100 to 10000 nM
17,"COc1cc(OC)cc(-c2nn(-c3cc(N4CC[C@H](O)C4)ccc3C(F)(F)F)c(=O)c3c2CCN3CC(N)=O)c1 [Example 28, 2-{4-(3,5-dimethoxy-phenyl)-6-[5-((S)-3-hydroxy-pyrrolidin-1-yl)-2-trifluoromethyl-phenyl]-7-oxo-2,3,6,7-tetrahydro-pyrrolo[2,3-d]pyridazin-1-yl}-acetamide]",< 100 nM
18,"CNC(=O)CCNc1ccc(C(F)(F)F)c(-n2nc(-c3cc(OC)cc(OC)c3)c3c(c2=O)CCC3)c1 [Example 138, 3-{3-[4-(3,5-dimethoxy-phenyl)-1-oxo-1,5,6,7-tetrahydro-cyclopenta[d]pyridazin-2-yl]-4-trifluoromethyl-phenylamino}-N-methyl-propionamide]",< 100 nM
19,"COc1cc(OC)cc(-c2nn(-c3cc(NCC(=O)N(C)C)ccc3C(F)(F)F)c(=O)c3c2CCC3)c1 [Example 125, 2-{3-[4-(3,5-dimethoxy-phenyl)-1-oxo-1,5,6,7-tetrahydro-cyclopenta[d]pyridazin-2-yl]-4-trifluoromethyl-phenylamino}-N,N-dimethyl-acetamide]",< 100 nM
20,"O=c1c2c(c(-c3cccc(Cl)c3)nn1-c1cc(N3CC[C@H](O)C3)ccc1C(F)(F)F)CCC2 [Example 72, 4-(3-chloro-phenyl)-2-[5-((S)-3-hydroxy-pyrrolidin-1-yl)-2-trifluoromethyl-phenyl]-2,5,6,7-tetrahydro-cyclopenta[d]pyridazin-1-one]",< 100 nM
21,"COc1cc(OC)cc(-c2nn(-c3cc(NCCN(C)C(=O)OC(C)(C)C)ccc3C(F)(F)F)c(=O)c3c2CCC3)c1 [Example 156, (2-{3-[4-(3,5-dimethoxy-phenyl)-1-oxo-1,5,6,7-tetrahydro-cyclopenta[d]pyridazin-2-yl]-4-trifluoromethyl-phenylamino}-ethyl)-methyl-carbamic acid tert-butyl ester]",100 to 10000 nM
22,"COC(=O)CN1CCc2c(-c3cc(OC)cc(OC)c3)nn(-c3cc(N4CC[C@H](O)C4)ccc3C(F)(F)F)c(=O)c21 [Example 26, {4-(3,5-dimethoxy-phenyl)-6-[5-((S)-3-hydroxy-pyrrolidin-1-yl)-2-trifluoromethyl-phenyl]-7-oxo-2,3,6,7-tetrahydro-pyrrolo[2,3-d]pyridazin-1-yl}-acetic acid methyl ester]",< 100 nM
23,"COc1cc(OC)cc(-c2nn(-c3cc(N4CC[C@H](O)C4)ccc3C(F)(F)F)c(=O)c3c2OCC3)c1 [Example 1-35, 7-(3,5-dimethoxy-phenyl)-5-[5-((S)-3-hydroxy-pyrrolidin-1-yl)-2-trifluoromethyl-phenyl]-3,5-dihydro-2H-furo[2,3-d]pyridazin-4-one]",< 100 nM
24,"Cc1cc(C)cc(-c2nn(-c3cc(N4CC[C@H](O)C4)ccc3C(F)(F)F)c(=O)c3c2CCC3)c1 [Example 4, 4-(3,5-dimethyl-phenyl)-2-[5-((S)-3-hydroxy-pyrrolidin-1-yl)-2-trifluoromethyl-phenyl]-2,5,6,7-tetrahydro-cyclopenta[d]pyridazin-1-one]",< 100 nM
25,"CNC(=O)CNc1ccc(C(F)(F)F)c(-n2nc(-c3cc(OC)cc(OC)c3)c3c(c2=O)CCC3)c1 [Example 124, 2-{3-[4-(3,5-dimethoxy-phenyl)-1-oxo-1,5,6,7-tetrahydro-cyclopenta[d]pyridazin-2-yl]-4-trifluoromethyl-phenylamino}-N-methyl-acetamide]",< 100 nM
26,"CCCCNC(=O)CN1CCc2c(-c3cc(OC)cc(OC)c3)nn(-c3cc(N4CC[C@H](O)C4)ccc3C(F)(F)F)c(=O)c21 [Example 34, N-butyl-2-{4-(3,5-dimethoxy-phenyl)-6-[5-((S)-3-hydroxy-pyrrolidin-1-yl)-2-trifluoromethyl-phenyl]-7-oxo-2,3,6,7-tetrahydro-pyrrolo[2,3-d]pyridazin-1-yl}-acetamide]",< 100 nM
27,"CNc1ccc(C(F)(F)F)c(-n2nc(-c3cc(OC)cc(OC)c3)c3c(c2=O)CCC3)c1 [Example 82, 4-(3,5-dimethoxy-phenyl)-2-(5-methylamino-2-trifluoromethyl-phenyl)-2,5,6,7-tetrahydro-cyclopenta[d]pyridazin-1-one]",< 100 nM
28,"CCN1CCc2c(-c3cc(OC)cc(OC)c3)nn(-c3cc(N4CC[C@H](O)C4)ccc3C(F)(F)F)c(=O)c21 [Example 55, 4-(3,5-dimethoxy-phenyl)-1-ethyl-6-[5-((S)-3-hydroxy-pyrrolidin-1-yl)-2-trifluoromethyl-phenyl]-1,2,3,6-tetrahydro-pyrrolo[2,3-d]pyridazin-7-one]",< 100 nM
